For this assay, the target named is GluR4 (GluR4flip) (Rattus norvegicus, UniProt P19493, L505Y). Description: whole-cell voltage-clamp dose-response. The class given is cell-based.

Structures are written as SMILES.

GluR4 (GluR4flip), sequence (P19493 21-902 isoform P19493-2 L505Y): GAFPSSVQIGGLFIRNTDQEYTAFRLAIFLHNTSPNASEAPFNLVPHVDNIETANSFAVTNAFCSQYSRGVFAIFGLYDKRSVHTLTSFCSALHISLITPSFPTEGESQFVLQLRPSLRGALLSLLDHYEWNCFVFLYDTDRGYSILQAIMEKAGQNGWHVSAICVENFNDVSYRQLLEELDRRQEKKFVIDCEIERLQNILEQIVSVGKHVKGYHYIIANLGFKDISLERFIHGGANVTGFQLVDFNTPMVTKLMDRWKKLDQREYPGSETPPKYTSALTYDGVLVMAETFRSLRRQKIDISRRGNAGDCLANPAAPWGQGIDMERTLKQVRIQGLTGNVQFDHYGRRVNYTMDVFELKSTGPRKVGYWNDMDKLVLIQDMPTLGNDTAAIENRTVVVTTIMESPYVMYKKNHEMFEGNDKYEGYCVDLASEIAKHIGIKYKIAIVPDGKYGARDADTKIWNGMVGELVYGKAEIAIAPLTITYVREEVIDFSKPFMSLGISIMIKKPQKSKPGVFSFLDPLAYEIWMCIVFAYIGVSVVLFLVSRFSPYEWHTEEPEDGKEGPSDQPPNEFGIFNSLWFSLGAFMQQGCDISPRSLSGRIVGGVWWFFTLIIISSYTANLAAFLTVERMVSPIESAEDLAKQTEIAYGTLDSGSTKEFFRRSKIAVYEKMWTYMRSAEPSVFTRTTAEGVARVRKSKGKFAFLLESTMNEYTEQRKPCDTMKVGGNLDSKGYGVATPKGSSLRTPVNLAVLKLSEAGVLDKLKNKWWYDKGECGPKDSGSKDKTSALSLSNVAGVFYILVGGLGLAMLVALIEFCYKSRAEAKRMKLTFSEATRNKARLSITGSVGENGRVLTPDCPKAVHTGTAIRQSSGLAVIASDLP

In the case of `C=C(C)[C@H]1CN[C@H](C(=O)O)[C@H]1CC(=O)O` [Kainate, 2-carboxy-3-carboxymethyl-4-isopropenyl-pyrrolidine], it took 92 ± 14 µM to reach a half-maximal effect (EC50).

(Values after article PMC2629381 (Biochemistry, 2008).)
